In patent US10925890B2, “Use of dextran sulfate” (TX MEDIC AB, priority 2014, dated 2021):

Tests used:
[1] = Body weight, tMCAO rat-stroke study; type: in vivo; conditions: 30 mg/kg 3 times a week or 15 mg/kg daily s.c., 28 days
Source text: In total 46 male SD rats having an average body weight of 342 g at study initiation (Day 0) were obtained from Harlan Laboratories, Israel. The minimal and maximal weight recorded in each group was within a range of ±20% of the group mean weight. Animals were handled according to guidelines of the National Institute of Health (NIH) and the Association for Assessment and Accreditation of Laboratory Animal Care (AAALAC). Animals were housed in polyethylene cages (5/cage) measuring 35×30×15 cm, with stainless steel top grill facilitating pelleted food and drinking water in plastic bottle; bedding: steam sterilized clean paddy husk (Harlan, Sani-chip cat #:2018SC+F) was used and bedding material was changed along with the cage at least twice a week. Animals were fed ad libitum a commercial rodent diet (Teklad Certified Global 18% Protein Diet cat #: 106S8216). Animals had free access to autoclaved and acidified drinking water (pH between 2.5 and 3.5) obtained from the municipality supply. Animals were housed under standard laboratory conditions, air-conditioned and filtered (HEPA F6/6) with adequate fresh air supply (Minimum 15 air changes/hour). Animals were kept in a climate-controlled environment. Temperatures range was 20-24° C. and RH range was 30-70% with 12 hours light and 12 hours dark cycle. […]

[2] = system: Rat Hind-Limb Ischemia Model; test: Blood flow by non-contact LASER Doppler, rat hind-limb ischemia; type: in vivo; conditions: for Mean change in blood flow from Day 0 to Day 28: vehicle 14.8
Procedure: (§1) The femoral artery and vein were ligated twice with 4-0 silk thread and transected between the ligatures. The wound was closed with 3-0 silk thread and the rats were allowed to recover.
(§2) Animals in group 4M and 5M were injected s.c. once on Day 8, see Table 12.
Blood flows in legs from both sides were measured with a non-contact LASER Doppler before surgery on Day −1 and on Days: 1, 7, 14, 21 and 28 post operation. Blood flow measurements were expressed as the ratio of the flow in the ischemic limb to that in the normal limb.

[3] = system: Rat Hind-Limb Ischemia Model; test: In vivo assessment of limb function, rat hind-limb ischemia; conditions: for Incidence of limb function score 0 / Incidence of limb function score 1 / Incidence of limb function score 2 / Incidence of limb function score 3: Day 28
Procedure: as §1, §2
Semi-quantitative assessment of impaired use of the ischemic limb was performed once a week post-surgery using the scale presented in Table 7. Scoring was performed by personnel blinded to the treatment.

[4] = system: Rat Hind-Limb Ischemia Model; test: Angiography analysis, rat hind-limb ischemia; type: in vivo; conditions: 28 days after induction of hind-limb ischemia; p<0.01 and p<0.001
Procedure: The number of intersections between contrast-filled vessels was determined by image analysis 28 days after induction of hind-limb ischemia.

[5] = system: Critical Hind-Limb Ischemia Mouse Model; test: Blood flow by non-contact laser Doppler, mouse hind-limb ischemia; type: in vivo; conditions: for folds increase in the mean blood flow due to dextran sulfate treatment: vs vehicle control 1M; for Mean change in blood flow day 35 vs. day 1: operated limb, vehicle 19.5
Procedure: Blood flows in legs from both sides were measured with a non-contact laser Doppler before surgery on day −1 and on days: 1, 7, 14, 21, 28 and 35 post operation. Blood flow measurements was expressed as the ratio of the flow in the ischemic limb to that in the normal limb.

[6] = system: Critical Hind-Limb Ischemia Mouse Model; test: Macroscopic evaluation of ischemic severity (necrosis grades), mouse hind-limb ischemia
Source text: On the day of surgery anesthesia was induced by 1.5 to 3.0% isoflurane, 1.5% N2O and 0.5% O2. Under anesthesia, the mice were placed with ventral side up. A 0.5-1.0 cm incision was made in the skin in the inguinal area. The femoral artery was ligated proximally just after the distal part of the iliac artery and distally after its bifurcation with profound femoral artery with 6-0 silk thread, transected and excised between two ligatures. The wound was closed with 4-0 silk thread and the mice were allowed to recover.
On day 8, week 2 post-surgery, each animal in groups 2M and 3M were injected dextran sulfate solution s.c. three times a week.

tMCAO rat-stroke model = test: Neurological test score (Neuroscore, mNRS), tMCAO rat; type: in vivo; conditions: groups 2M (30 mg/kg 3 times per week) and 3M (daily); day 7 up to day 28
Procedure: Transient middle cerebral artery occlusion was performed according to the method previously described in Stroke 29, 2162-2170 (1998). The right common carotid artery (CCA) was exposed through a midline neck incision and carefully dissected free from surrounding nerves and fascia—from its bifurcation to the base of the skull. The occipital artery branches of the external carotid artery (ECA) were then isolated, and these branches were dissected and coagulated. The ECA was dissected further distally and coagulated along with the terminal lingual and maxillary artery branches, which was then divided. The internal carotid artery (ICA) was isolated and carefully separated from the adjacent vagus nerve, and the pterygopalatine artery was ligated close to its origin with a 5-0 nylon suture (SMI, Belgium). Next a 4-0 silk suture was tied loosely around the mobilized ECA stump, and a 4 cm length of 4-0 monofilament nylon suture (the tip of the suture was blunted by using a flame, and the suture was coated with polylysine, prior to insertion) was inserted through the proximal ECA into the ICA and thence into the circle of Willis, effectively occluding the MCA. The surgical wound was closed and the animals were returned to their cages to recover from anesthesia. […]

[7] = group 4M, 30 mg/kg s.c. administered once
[8] = group 5M, 3 mg/kg s.c. administered once
[9] = groups 2M, 3M, 4M and 5M vs 1M, Day 14 through Day 28
[10] = group 2M, 30 mg/kg s.c. 3 times a week
[11] = group 3M, 30 mg/kg (as printed in Table 12) s.c. 3 times a week
[12] = day 7 (before treatment start day 8), group 2M, 10 mg/kg 3 times/week
[13] = day 7 (before treatment start day 8), group 3M, 30 mg/kg 3 times/week
[14] = day 7 (before treatment start day 8), group 4M, 30 mg/kg 1 time/week

## Dextran sulfate
[1]
  Body weight, differences among treatment groups: no statistically significant differences
[2]; group 2M, 30 mg/kg s.c. 3 times a week starting on Day 8
  Mean change in blood flow from Day 0 to Day 28: 47.7%
[2]; group 3M, 30 mg/kg (as printed in Table 12) s.c. 3 times a week starting on Day 8
  Mean change in blood flow from Day 0 to Day 28: 39.1%
[2]; [7]
  Mean change in blood flow from Day 0 to Day 28: 44.0%
[2]; [8]
  Mean change in blood flow from Day 0 to Day 28: 41.0%
[2]; [9]
  Ratio of blood flow HLI-injured versus non-injured leg, treated groups vs control: statistically significant differences
[3]; [10]
  Incidence of limb function score 0: 100%
  Incidence of limb function score 1: 0%
  Incidence of limb function score 2: 0%
  Incidence of limb function score 3: 0%
[3]; [11]
  Incidence of limb function score 0: 88%
  Incidence of limb function score 1: 12%
  Incidence of limb function score 2: 0%
  Incidence of limb function score 3: 0%
[3]; [7]
  Incidence of limb function score 0: 100%
  Incidence of limb function score 1: 0%
  Incidence of limb function score 2: 0%
  Incidence of limb function score 3: 0%
[3]; [8]
  Incidence of limb function score 0: 94%
  Incidence of limb function score 1: 6%
  Incidence of limb function score 2: 0%
  Incidence of limb function score 3: 0%
[3]; [9]
  Limb function score, treated groups vs control: statistically significant differences
[4]
  Angiography: collaterals in affected limb vs vehicle control: significantly large numbers of collaterals
[5]; 30 mg/kg s.c. three times a week or once a week
  Blood perfusion compared to the vehicle treated control: significantly restored blood perfusion
[5]; group 2M, 10 mg/kg 3 times/week
  folds increase in the mean blood flow due to dextran sulfate treatment: 2.2 folds
[5]; group 2M, 10 mg/kg s.c. 3 times/week
  Mean change in blood flow day 35 vs. day 1: 46.7 units
[5]; group 3M, 30 mg/kg 3 times/week
  folds increase in the mean blood flow due to dextran sulfate treatment: 3.0 folds
[5]; group 3M, 30 mg/kg s.c. 3 times/week
  Mean change in blood flow day 35 vs. day 1: 59.3 units
[5]; group 4M, 30 mg/kg 1 time/week
  folds increase in the mean blood flow due to dextran sulfate treatment: 2.8 folds
[5]; group 4M, 30 mg/kg s.c. 1 time/week
  Mean change in blood flow day 35 vs. day 1: 51.1 units
[6]; [12]
  Incidence of mice with limb amputation: 0.0%
  Incidence of mice with toe necrosis: 0.0%
[6]; [13]
  Incidence of mice with limb amputation: 0.0%
  Incidence of mice with toe necrosis: 0.0%
[6]; [14]
  Incidence of mice with limb amputation: 0.0%
  Incidence of mice with toe necrosis: 0.0%
[6]; day 35, group 2M, 10 mg/kg s.c. 3 times/week, vehicle 15.4
  Incidence of mice with limb amputation: 0.0%
[6]; day 35, group 2M, 10 mg/kg s.c. 3 times/week, vehicle 23.1
  Incidence of mice with toe necrosis: 21.4%
[6]; day 35, group 3M, 30 mg/kg s.c. 3 times/week, vehicle 15.4
  Incidence of mice with limb amputation: 0.0%
[6]; day 35, group 3M, 30 mg/kg s.c. 3 times/week, vehicle 23.1
  Incidence of mice with toe necrosis: 14.3%
[6]; day 35, group 4M, 30 mg/kg s.c. 1 time/week, vehicle 15.4
  Incidence of mice with limb amputation: 7.1%
tMCAO rat-stroke model
  Neuroscore (0-18) compared to vehicle treated control: Statistically significant differences
